The values below come from US8420884B2, “Models of malignant brain cancer, and therapeutic siRNAs against oncogenic signaling pathways, and methods and kits for uses therefor” (Tufts Medical Center Inc., priority 2008, dated 2013).

One assay relates to GBM culture 102. Kind of assay: Cytotoxicity of NXD30001 and 17-AAG in GBM cultures. The assay is classed as cell-based, mouse. Particulars: GBM 102; mean of three independent experiments ± standard deviation. On the procedure:
(§1) Primary cultures of tumors or newborn mice astrocytes were established as follows: tumors or P0 neonate cortices were excised and minced in 0.25% trypsin (wt/vol) 1 mM EDTA and allowed to disaggregate for 15 min at 37° C. The resulting cell suspension was then strained through a 70-μm cell strainer (Falcon). The single suspension of cells was washed in PBS twice and plated on 0.2% gelatin-coated tissue culture plates. Cells were fed every 24 hr with fresh medium that consisted of DMEM supplemented with 10% heat-inactivated FBS and antibiotics. The primary cultures of astrocytes were routinely stained for markers of astrocytic lineages by immunofluorescence.
(§2) Cytotoxicity of NXD30001 was assessed in GMB cell proliferating cultures obtained from clinical mouse subjects and was compared to that of 17-(Allylamino)-17-demethoxygeldanamycin (17-AAG), an ansamycin antibiotic which binds to HSP90. Data obtained was analyzed as half maximum inhibitory concentration (1050) values (Table 3).

A further assay concerns GBM culture 103. The description is as above. Particulars: GBM 103; mean of three independent experiments ± standard deviation. The assay is classed as cell-based, mouse. On the procedure:
as §1, §2

The next assay deals with GBM culture 2000. Described as above. The format is cell-based, mouse. Particulars: GBM 2000; mean of three independent experiments ± standard deviation. On the procedure:
as §1, §2

In another assay the test system is GBM culture 2227. The description is as above. The assay is classed as cell-based, mouse. Particulars: GBM 2227; mean of three independent experiments ± standard deviation. On the procedure: as §1, §2
The subject of another assay is GBM culture 2231. The description is as above. The format is cell-based, mouse. Particulars: GBM 2231; mean of three independent experiments ± standard deviation. On the procedure:
as §1, §2

The test system of a further assay is GBM culture 2414. The description is as above. The assay is classed as cell-based, mouse. Particulars: GBM 2414; mean of three independent experiments ± standard deviation. On the procedure:
as §1, §2

The next assay concerns GBM culture 2415. The assay is described as above. The format is cell-based, mouse. Particulars: GBM 2415; mean of three independent experiments ± standard deviation. On the procedure:
as §1, §2

The test system of a further assay is GBM culture 2734. Described as above. The assay is classed as cell-based, mouse. Particulars: GBM 2734; mean of three independent experiments ± standard deviation. On the procedure:
as §1, §2

In the next assay the test system is GBM culture 41. The description is as above. The format is cell-based, mouse. Particulars: GBM 41; mean of three independent experiments ± standard deviation. On the procedure: as §1, §2
The subject of another assay is GBM culture 42. The assay is described as above. The format is cell-based, mouse. Particulars: GBM 42; mean of three independent experiments ± standard deviation. On the procedure: as §1, §2
For the next assay, the system named is GBM culture 46. Described as above. The format is cell-based, mouse. Particulars: GBM 46; mean of three independent experiments ± standard deviation. On the procedure:
as §1, §2

For the next assay, the system named is GBM culture 69. Described as above. The assay is classed as cell-based, mouse. Particulars: GBM 69; mean of three independent experiments ± standard deviation. On the procedure:
as §1, §2

Another assay has as its system GBM-1 cells. The assay is described as above. The format is cell-based, mouse. Particulars: mean of three independent experiments ± standard deviation. On the procedure: as §1, §2
A further assay concerns GBM-2 cells. The assay is described as above. Particulars: mean of three independent experiments ± standard deviation. The assay is classed as cell-based, mouse. On the procedure:
as §1, §2

The subject of assay [1] is recurrent and newly diagnosed GBMs. Particulars: unselected patients; phase II; cited from earlier work.
The next assay relates to GBMs. Particulars: GBM patients; cited from earlier work.
The subject of assay [2] is GBM tumors in conditional EGFR animals. Particulars: animal number 2148; 80 days. On the procedure:
Bioluminescence was measured noninvasively using the IVIS 200 imaging system (Xenogen). For live imaging, the surface areas of focus for imaging were depilated using commercial depilatory creams. Images were taken 10 min after IP injection of luciferin (225 mg/kg, Xenogen) to allow sufficient time for distribution of luciferin, with a 60 second photon acquisition during which mice were sedated via continuous inhalation of 3% isoflurane. For organ imaging post luciferin injection, animals were incubated for 10 min and perfused transcardially with saline. Bioluminescence imaging was then performed on individually dissected organs. Signal intensity was quantified for defined regions of interest as photon count rate per unit body area per unit solid angle subtended by the detector (units of photons/s/cm^2/steradian). All image analyses and bioluminescent quantification were performed using Living Image software v. 2.50 (Xenogen).
Conditional EGFR animals were examined using bioluminescence imaging at different periods of time after tumor induction with Ad-Cre-recombinase by the methods above.

SMILES strings stand for the structures. “Also recorded” adds a separate entry of the source.

As a reminder, the IC50 is the midpoint of a concentration-inhibition curve. For `C=CCNC1=C2C[C@@H](C)C[C@H](OC)[C@H](O)[C@@H](C)/C=C(\C)[C@H](OC(N)=O)[C@@H](OC)/C=C\C=C(/C)C(=O)NC(=CC1=O)C2=O` [17-AAG, 17-(Allylamino)-17-demethoxygeldanamycin], the IC50 in the assay on GBM culture 102 turned out to be 0.6262 ± 0.006 µM; in the assay with GBM culture 103, 0.793 ± 0.0287 µM; with GBM culture 2000, 0.345 ± 0.0755 µM; with GBM culture 2227, 0.712 µM; in the assay with GBM culture 2231, 0.737 ± 0.072 µM; in the assay on GBM culture 2414, 0.205 ± 0.0131 µM. Moreover, the IC50 is 0.329 ± 0.0501 µM with GBM culture 2415; 0.381 µM with GBM culture 2734; 0.1 ± 0.005 µM with GBM culture 41; 0.166 ± 0.0249 µM with GBM culture 42; 0.0919 ± 0.0014 µM in the assay with GBM culture 46; 0.091 µM in the assay on GBM culture 69. For the same molecule, the IC50 turned out to be 0.208 ± 0.0096 µM in the assay with GBM-1 cells and 1.1 ± 0.119 µM with GBM-2 cells.

Turning to `COc1cc2ncnc(Nc3ccc(F)c(Cl)c3)c2cc1OCCCN1CCOCC1` [gefitinib], the overall efficacy result in [1] is recorded as “minimal when compared with historical data”.

Consider `CO[C@H]1C[C@@H]2CC[C@@H](C)[C@@](O)(O2)C(=O)C(=O)N2CCCC[C@H]2C(=O)O[C@H]([C@H](C)C[C@@H]2CC[C@@H](OC(=O)C(C)(CO)CO)[C@H](OC)C2)CC(=O)[C@H](C)/C=C(\C)[C@@H](O)[C@@H](OC)C(=O)[C@H](C)C[C@H](C)/C=C/C=C/C=C/1C` [temsirolimus], for which, in the assay with GBMs, the “Phase II results of two clinical trials” value is “negative, with no improvement in response rates, progression-free survival or overall survival”.

On to `C#Cc1cccc(Nc2ncnc3cc(OCCOC)c(OCCOC)cc23)c1` [Tarceva, erlotinib], for which the “outcome by bioluminescence imaging” value in assay [2] is “essentially cured by treatment; also recorded: essentially been cured of cancer”. Moreover, in assay [1], the overall efficacy result is listed as “minimal when compared with historical data”.
